Results on 32 molecules are retold here after patent publication US20240294534A1, “IMIDAZOTRIAZINE DERIVATIVES AS IL-17 MODULATORS” (UCB BIOPHARMA SRL, priority 2021, published 2024).

The target of this assay is T1, IL-17A (Homo sapiens, UniProt Q16552).
T1 sequence (Q16552 24-155): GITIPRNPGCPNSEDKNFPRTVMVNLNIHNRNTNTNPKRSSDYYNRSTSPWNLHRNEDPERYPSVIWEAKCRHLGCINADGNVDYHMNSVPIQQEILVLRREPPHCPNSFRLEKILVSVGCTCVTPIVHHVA
Put plainly: Inhibition of IL-17A induced IL-6 release from dermal fibroblast cell line (HDF cell line assay). In kind it is cell-based. The following applies: human dermal fibroblasts stimulated with IL-17A (50 pM) + TNF-α (25 pM); IL-6 measured by HTRF; pIC50 = -log10[IC50], IC50 molar. From the text:
Inhibition of IL-17A Induced IL-6 Release from Dermal Fibroblast Cell Line
The purpose of this assay is to test the neutralising ability to IL-17 proteins, in a human primary cell system. Stimulation of normal human dermal fibroblasts (HDF) with IL-17 alone produces only a very weak signal but in combination with certain other cytokines, such as TNFα, a synergistic effect can be seen in the production of inflammatory cytokines, i.e. IL-6.
HDFs were stimulated with IL-17A (50 pM) in combination with TNF-α (25 pM). The resultant IL-6 response was then measured using a homogenous time-resolved FRET kit from Cisbio. The kit utilises two monoclonal antibodies, one labelled with Eu-Cryptate (Donor) and the second with d2 or XL665 (Acceptor). The intensity of the signal is proportional to the concentration of IL-6 present in the sample (Ratio is calculated by 665/620×104).
The ability of a compound to inhibit IL-17 induced IL-6 release from human dermal fibroblasts is measured in this assay.
HDF cells (Sigma #106-05n) were cultured in complete media (DMEM+10% FCS+2 mM L-glutamine) and maintained in a tissue culture flask using standard techniques. Cells were harvested from the tissue culture flask on the morning of the assay using TrypLE (Invitrogen #12605036). The TrypLE was neutralised using complete medium (45 mL) and the cells were centrifuged at 300×g for 3 minutes. The cells were re-suspended in complete media (5 mL) counted and adjusted to a concentration of 3.125×10^4 cells/mL before being added to the 384 well assay plate (Corning #3701) at 40 μL per well. The cells were left for a minimum of three hours, at 37° C./5% CO2, to adhere to the plate.
Compounds were serially diluted in DMSO before receiving an aqueous dilution into a 384 well dilution plate (Greiner #781281), where 5 μL from the titration plate was transferred to 45 μL of complete media and mixed to give a solution containing 10% DMSO.
Mixtures of TNFα and IL-17 cytokine were prepared in complete media to final concentrations of TNFα 25 pM/IL-17A 50 pM, then 30 μL of the solution was added to a 384 well reagent plate (Greiner #781281).
10 μL from the aqueous dilution plate was transferred to the reagent plate containing 30 μL of the diluted cytokines, to give a 2.5% DMSO solution. The compounds were incubated with the cytokine mixtures for 5 h at 37° C. After the incubation, 10 μL was transferred to the assay plate, to give a 0.5% DMSO solution, then incubated for 18-20 h at 37° C./5% CO2.
From the Cisbio IL-6 FRET kit (Cisbio #62IL6PEB) europium cryptate and Alexa 665 were diluted in reconstitution buffer and mixed 1:1, as per kit insert. To a white low volume 384 well plate (Greiner #784075) were added FRET reagents (10 μL), then supernatant (10 μL) was transferred from the assay plate to Greiner reagent plate. The mixture was incubated at room temperature for 3 h with gentle shaking (<400 rpm) before being read on a Synergy Neo 2 plate reader (Excitation: 330 nm; Emission: […]).

Turning to `Cc1nonc1C(=O)N[C@H](c1cn2ncc([C@@H]3C[C@@](O)(C(F)(F)F)CCN3C(=O)C34CC(F)(C3)C4)nc2n1)C(C1CC1)C1CC1` (single isomer, unassigned) [Example 1], the IC50 is 7.94 nM.

For the molecule `Cc1nonc1C(=O)N[C@H](c1cn2ncc([C@H]3C[C@](O)(C(F)(F)F)CCN3C(=O)C34CC(F)(C3)C4)nc2n1)C(C1CC1)C1CC1` (single isomer, unassigned) [Example 2], the concentration for half-maximal inhibition (IC50) was 158 nM. To `Cc1nonc1C(=O)N[C@H](c1cn2ncc([C@@H]3COCCN3C(=O)C34CC(F)(C3)C4)nc2n1)C1CCC(F)(F)CC1` (single isomer, unassigned) [Example 3] belongs 79.4 nM; to `Cc1nonc1C(=O)N[C@H](c1cn2ncc([C@H]3COCCN3C(=O)C34CC(F)(C3)C4)nc2n1)C1CCC(F)(F)CC1` (single isomer, unassigned) [Example 4], 631 nM.

In the case of `Cc1nonc1C(=O)N[C@H](c1cn2ncc([C@@H]3COCCN3C(=O)[C@@H]3CCC(F)(F)CO3)nc2n1)C(C1CC1)C1CC1` (single isomer, unassigned) [Example 5], the IC50 was 3.98 nM. For `Cc1nonc1C(=O)N[C@H](c1cn2ncc([C@H]3COCCN3C(=O)[C@@H]3CCC(F)(F)CO3)nc2n1)C(C1CC1)C1CC1` (single isomer, unassigned) [Example 6], the IC50 is 100 nM. To `Cc1nonc1C(=O)N[C@H](c1cn2ncc([C@@H]3COCCN3C(=O)[C@@H]3CCC(F)(F)CO3)nc2n1)C1CCC(F)(F)CC1` (single isomer, unassigned) [Example 7] belongs 6.31 nM; to `Cc1nonc1C(=O)NC(c1cn2ncc(C3COCCN3C(=O)C3CCC(F)(F)CO3)nc2n1)C1CCC(F)(F)CC1` (single isomer, unassigned) [Example 8], 126 nM; to `Cc1nonc1C(=O)N[C@H](c1cn2ncc([C@@H]3C[C@@](O)(C(F)(F)F)CCN3C(=O)C34CC(F)(C3)C4)nc2n1)C1CCC(F)(F)CC1` (single isomer, unassigned) [Example 9], 6.31 nM. To `Cc1nonc1C(=O)N[C@H](c1cn2ncc([C@H]3C[C@](O)(C(F)(F)F)CCN3C(=O)C34CC(F)(C3)C4)nc2n1)C1CCC(F)(F)CC1` (single isomer, unassigned) [Example 10] belongs 501 nM; to `O=C(N[C@H](c1cn2ncc([C@@H]3C[C@@](O)(C(F)(F)F)CCN3C(=O)C34CC(F)(C3)C4)nc2n1)C1CCC(F)(F)CC1)C1(F)CC1` (single isomer, unassigned) [Example 11], 50.1 nM.

For the molecule `O=C(N[C@H](c1cn2ncc([C@H]3C[C@](O)(C(F)(F)F)CCN3C(=O)C34CC(F)(C3)C4)nc2n1)C1CCC(F)(F)CC1)C1(F)CC1` (single isomer, unassigned) [Example 12], the IC50 is 7940 nM.

Regarding `Cc1nonc1C(=O)N[C@H](c1cn2ncc([C@@H]3C[C@@](O)(C(F)(F)F)CCN3C(=O)[C@@H]3CCC(F)(F)CO3)nc2n1)C1CCC(F)(F)CC1` (single isomer, unassigned) [Example 18], the IC50 is 2.51 nM.

As to `Cc1nonc1C(=O)N[C@H](c1cn2ncc([C@H]3C[C@](O)(C(F)(F)F)CCN3C(=O)[C@@H]3CCC(F)(F)CO3)nc2n1)C1CCC(F)(F)CC1` (single isomer, unassigned) [Example 19], the 50% inhibitory concentration (IC50) is 100 nM. To `O=C([C@@H]1CCC(F)(F)CO1)N1CC[C@](O)(C(F)(F)F)C[C@H]1c1cnn2cc([C@@H](NC(=O)C3(F)CC3)C3CCC(F)(F)CC3)nc2n1` (single isomer, unassigned) [Example 20] belongs 15.8 nM; to `O=C([C@@H]1CCC(F)(F)CO1)N1CC[C@@](O)(C(F)(F)F)C[C@@H]1c1cnn2cc([C@@H](NC(=O)C3(F)CC3)C3CCC(F)(F)CC3)nc2n1` (single isomer, unassigned) [Example 21], 398 nM. To `Cc1nonc1C(=O)N[C@H](c1cn2ncc([C@@H]3C[C@@](O)(C(F)F)CCN3C(=O)[C@@H]3CCC(F)(F)CO3)nc2n1)C1CCC(F)(F)CC1` (single isomer, unassigned) [Example 22] belongs 6.31 nM. To `Cc1nonc1C(=O)N[C@H](c1cn2ncc([C@H]3C[C@](O)(C(F)F)CCN3C(=O)[C@@H]3CCC(F)(F)CO3)nc2n1)C1CCC(F)(F)CC1` (single isomer, unassigned) [Example 23] belongs 158 nM; to `Cc1nonc1C(=O)N[C@H](c1cn2ncc([C@@H]3COCCN3C(=O)[C@@H]3CCC(F)(F)CO3)nc2n1)[C@H]1CC[C@H](C(F)(F)F)CC1` (single isomer, unassigned) [Example 24], 10 nM. Take `Cc1nonc1C(=O)N[C@H](c1cn2ncc([C@@H]3COCCN3C(=O)[C@@H]3CCC(F)(F)CO3)nc2n1)[C@H]1CC[C@H](C(F)(F)F)CC1` (single isomer, unassigned) [Example 25]: the IC50 is 316 nM. To `Cc1nonc1C(=O)N[C@H](c1cn2ncc([C@@H]3C[C@@](O)(C(F)F)CCN3C(=O)C34CC(F)(C3)C4)nc2n1)C1CCC(F)(F)CC1` (single isomer, unassigned) [Example 26] belongs 10 nM; to `Cc1nonc1C(=O)N[C@H](c1cn2ncc([C@H]3C[C@](O)(C(F)F)CCN3C(=O)C34CC(F)(C3)C4)nc2n1)C1CCC(F)(F)CC1` (single isomer, unassigned) [Example 27], 251 nM; to `Cc1nonc1C(=O)N[C@H](c1cn2ncc([C@@H]3C[C@](O)(C(F)F)CCN3C(=O)C34CC(F)(C3)C4)nc2n1)C1CCC(F)(F)CC1` (single isomer, unassigned) [Example 28], 39.8 nM.

Consider `Cc1nonc1C(=O)N[C@H](c1cn2ncc([C@H]3C[C@@](O)(C(F)F)CCN3C(=O)C34CC(F)(C3)C4)nc2n1)C1CCC(F)(F)CC1` (single isomer, unassigned) [Example 29], for which the IC50 was 631 nM.

For `Cc1nonc1C(=O)N[C@H](c1cn2ncc([C@@H]3C[C@](O)(C(F)F)CCN3C(=O)[C@@H]3CCC(F)(F)CO3)nc2n1)C1CCC(F)(F)CC1` (single isomer, unassigned) [Example 30], the IC50 is 12.6 nM. To `Cc1nonc1C(=O)N[C@H](c1cn2ncc([C@H]3C[C@@](O)(C(F)F)CCN3C(=O)[C@@H]3CCC(F)(F)CO3)nc2n1)C1CCC(F)(F)CC1` (single isomer, unassigned) [Example 31] belongs 15.8 nM. To `Cc1nonc1C(=O)N[C@H](c1cn2ncc([C@@H]3C[C@](O)(C(F)(F)F)CCN3C(=O)C34CC(F)(C3)C4)nc2n1)C1CCC(F)(F)CC1` (single isomer, unassigned) [Example 32] belongs 63.1 nM.

For the molecule `Cc1nonc1C(=O)N[C@H](c1cn2ncc([C@H]3C[C@@](O)(C(F)(F)F)CCN3C(=O)C34CC(F)(C3)C4)nc2n1)C1CCC(F)(F)CC1` (single isomer, unassigned) [Example 33], the IC50 was 126 nM. For the molecule `Cc1nonc1C(=O)N[C@H](c1cn2ncc([C@@H]3C[C@](C)(O)CCN3C(=O)[C@@H]3CCC(F)(F)CO3)nc2n1)C1CCC(F)(F)CC1` (single isomer, unassigned) [Example 34], the IC50 was 3.98 nM. Take `Cc1nonc1C(=O)N[C@H](c1cn2ncc([C@H]3C[C@@](C)(O)CCN3C(=O)[C@@H]3CCC(F)(F)CO3)nc2n1)C1CCC(F)(F)CC1` (single isomer, unassigned) [Example 35]: the IC50 is 126 nM. To `Cc1nonc1C(=O)N[C@H](c1cn2ncc([C@@H]3C[C@](C)(O)CCN3C(=O)C34CC(F)(C3)C4)nc2n1)C1CCC(F)(F)CC1` (single isomer, unassigned) [Example 36] belongs 12.6 nM; to `Cc1nonc1C(=O)N[C@H](c1cn2ncc([C@H]3C[C@@](C)(O)CCN3C(=O)C34CC(F)(C3)C4)nc2n1)C1CCC(F)(F)CC1` (single isomer, unassigned) [Example 37], 794 nM.
